Experimental data published in article PMC12680861, “Comparative analysis of LJ-4378 and tirzepatide in mouse models of obesity and weight regain” (Archives of Pharmacal Research, 2025).

Legend:
CYP1A2 = target: T1, CYP1A2 (Homo sapiens, UniProt P05177); experiment: CYP enzyme inhibition in pooled human liver microsomes (phenacetin substrate); conditions: microsomes, 10 µM
T1 sequence (P05177 1-516): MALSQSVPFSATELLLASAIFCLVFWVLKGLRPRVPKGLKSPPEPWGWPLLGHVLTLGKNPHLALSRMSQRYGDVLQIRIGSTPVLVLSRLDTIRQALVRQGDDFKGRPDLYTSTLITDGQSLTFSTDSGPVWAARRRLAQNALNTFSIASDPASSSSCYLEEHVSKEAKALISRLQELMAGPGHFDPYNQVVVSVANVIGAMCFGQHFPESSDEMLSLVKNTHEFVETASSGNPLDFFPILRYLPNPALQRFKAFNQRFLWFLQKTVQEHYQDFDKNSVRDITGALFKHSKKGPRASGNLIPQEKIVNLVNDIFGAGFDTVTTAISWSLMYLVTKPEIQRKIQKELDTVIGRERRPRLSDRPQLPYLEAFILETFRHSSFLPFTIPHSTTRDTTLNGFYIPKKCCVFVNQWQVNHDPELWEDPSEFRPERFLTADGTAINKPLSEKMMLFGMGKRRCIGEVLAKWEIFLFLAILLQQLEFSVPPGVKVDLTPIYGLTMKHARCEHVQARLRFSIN
Experimental: (§1) Cytochrome 450 (CYP) enzyme inhibition was evaluated using pooled human liver microsomes (Corning, #452117). […] Substrates and corresponding metabolites for each CYP isoform were as follows: phenacetin and acetaminophen for CYP1A2 (Sigma Aldrich, #77440 and A7085, respectively), diclofenac and 4'-hydroxydiclofenac for CYP2C9 (Sigma Aldrich, D6899; TRC, H825225), S-mephenytoin and 4'-hydroxymephenytoin for CYP2C19 (Sigma Aldrich, UC175; Santacruz, sc210197), dextromethorphan and dextrorphan for CYP2D6 (Sigma Aldrich, #81091 and UC205), and midazolam and 1'-hydroxymidazolam for CYP3A4 (KFDA; Sigma Aldrich, UC430).
(§2) Samples were preincubated at 37 °C for 5 min, and the reaction was initiated by the addition of the NADPH regeneration system, followed by incubation at 37 °C for 15 min. The reaction was terminated by adding acetonitrile containing the internal standard, and centrifuged at 15,000 rpm for 5 min at 4 °C. The supernatant was analyzed by LC–MS/MS using a Nexera XR system (Shimadzu, Japan) coupled with a TSQ Vantage mass spectrometer (Thermo, USA). […] Metabolites were quantified in multiple reaction monitoring (MRM) mode with Xcalibur software (version 4.4).
(§3) All experiments were performed in duplicate with variability ≤ 15%. The percent activity of each CYP enzyme was calculated based on metabolite formation relative to the no-inhibitor control.

CYP2C9 = CYP2C9 (Homo sapiens, UniProt P11712); experiment: CYP enzyme inhibition in pooled human liver microsomes (diclofenac substrate); conditions: microsomes, 10 µM
CYP2C9, sequence (P11712 whole entry): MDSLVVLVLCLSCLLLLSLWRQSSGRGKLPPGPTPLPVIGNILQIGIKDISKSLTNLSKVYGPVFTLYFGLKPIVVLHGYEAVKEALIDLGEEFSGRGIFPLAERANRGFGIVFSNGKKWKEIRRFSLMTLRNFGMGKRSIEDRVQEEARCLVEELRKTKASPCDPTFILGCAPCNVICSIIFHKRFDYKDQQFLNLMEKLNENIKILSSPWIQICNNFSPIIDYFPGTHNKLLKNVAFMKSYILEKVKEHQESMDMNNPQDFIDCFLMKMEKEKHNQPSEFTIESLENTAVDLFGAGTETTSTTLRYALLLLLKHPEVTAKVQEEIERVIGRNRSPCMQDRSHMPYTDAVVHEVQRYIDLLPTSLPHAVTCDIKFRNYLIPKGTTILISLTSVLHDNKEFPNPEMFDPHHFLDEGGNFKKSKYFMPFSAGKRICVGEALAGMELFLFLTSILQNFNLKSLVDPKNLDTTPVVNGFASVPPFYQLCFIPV
Experimental: as §1, §2, §3

CYP2C19 = CYP2C19 (Homo sapiens, UniProt P33261); experiment: CYP enzyme inhibition in pooled human liver microsomes (S-mephenytoin substrate); conditions: microsomes, 10 µM
CYP2C19, sequence (P33261 whole entry): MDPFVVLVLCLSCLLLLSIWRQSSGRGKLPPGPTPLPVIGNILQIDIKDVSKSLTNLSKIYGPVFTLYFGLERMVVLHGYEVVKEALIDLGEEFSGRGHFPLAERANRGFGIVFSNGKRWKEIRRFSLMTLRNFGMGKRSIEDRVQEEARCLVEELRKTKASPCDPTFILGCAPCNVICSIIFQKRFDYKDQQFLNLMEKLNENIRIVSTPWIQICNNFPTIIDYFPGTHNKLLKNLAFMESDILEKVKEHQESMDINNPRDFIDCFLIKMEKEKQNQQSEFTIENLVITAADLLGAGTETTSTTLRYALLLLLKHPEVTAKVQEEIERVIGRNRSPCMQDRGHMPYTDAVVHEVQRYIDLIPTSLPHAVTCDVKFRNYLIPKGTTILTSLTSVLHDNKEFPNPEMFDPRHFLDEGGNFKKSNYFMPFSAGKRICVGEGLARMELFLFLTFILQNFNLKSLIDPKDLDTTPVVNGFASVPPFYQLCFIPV
Experimental: as §1, §2, §3

CYP2D6 = CYP2D6 (Homo sapiens, UniProt P10635); conditions: microsomes, 10 µM
CYP2D6, sequence (P10635 whole entry): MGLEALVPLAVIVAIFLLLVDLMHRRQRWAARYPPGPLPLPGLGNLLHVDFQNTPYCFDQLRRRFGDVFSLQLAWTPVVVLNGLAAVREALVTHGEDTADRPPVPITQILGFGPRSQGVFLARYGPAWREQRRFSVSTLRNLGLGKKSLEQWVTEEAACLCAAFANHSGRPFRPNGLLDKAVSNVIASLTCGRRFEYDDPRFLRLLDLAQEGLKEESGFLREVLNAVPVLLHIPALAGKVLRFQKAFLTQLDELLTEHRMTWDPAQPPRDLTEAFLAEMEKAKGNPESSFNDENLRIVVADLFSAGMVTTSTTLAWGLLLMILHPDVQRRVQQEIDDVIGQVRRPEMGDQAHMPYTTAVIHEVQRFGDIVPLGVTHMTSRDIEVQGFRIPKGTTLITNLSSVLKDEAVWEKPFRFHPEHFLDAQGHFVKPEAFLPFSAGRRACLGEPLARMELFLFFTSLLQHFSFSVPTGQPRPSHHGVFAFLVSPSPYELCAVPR
Experimental: as §1, §2, §3

CYP3A4 = CYP3A4 (Homo sapiens, UniProt P08684); experiment: CYP enzyme inhibition in pooled human liver microsomes (midazolam substrate); conditions: at 10 µM, 15 min
CYP3A4, sequence (P08684 whole entry): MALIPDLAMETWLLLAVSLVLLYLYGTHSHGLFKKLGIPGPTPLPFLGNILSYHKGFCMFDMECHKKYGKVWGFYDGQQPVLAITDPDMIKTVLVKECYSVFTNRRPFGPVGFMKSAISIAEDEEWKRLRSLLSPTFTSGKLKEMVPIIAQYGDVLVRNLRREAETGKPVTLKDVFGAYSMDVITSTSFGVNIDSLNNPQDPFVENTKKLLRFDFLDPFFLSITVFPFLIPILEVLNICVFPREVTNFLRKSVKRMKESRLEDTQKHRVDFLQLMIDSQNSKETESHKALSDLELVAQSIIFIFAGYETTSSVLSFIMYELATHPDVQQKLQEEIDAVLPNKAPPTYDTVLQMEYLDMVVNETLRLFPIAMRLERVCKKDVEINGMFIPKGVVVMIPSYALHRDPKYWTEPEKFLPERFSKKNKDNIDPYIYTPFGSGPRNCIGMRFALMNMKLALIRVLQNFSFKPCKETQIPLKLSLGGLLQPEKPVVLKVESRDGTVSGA
Experimental: as §1, §2, §3

plasma protein [1] = experiment: Plasma protein binding, Rapid Equilibrium Dialysis (RED); format: in vitro ADME, human; conditions: 10 μM, 37 °C, 4 h
Experimental: (§4) The plasma protein binding of LJ-4378 was evaluated using the Rapid Equilibrium Dialysis (RED) method with 100% plasma from human (Biochemed, BC22089NCP), rat (Innovative, IRT-N), and mouse (Biochemed, 029-APSC-MP), all treated with sodium citrate as an anticoagulant. The RED device (ThermoFisher Scientific, #89809) and reusable base plate (ThermoFisher Scientific, #89811) were used with an 8 K MWCO membrane. Test compounds were added to plasma at a final concentration of 10 μM and dialyzed against phosphate-buffered saline (PBS, pH 7.4; Hyclone, #SH30256.01) at 37 °C for 4 h. After incubation, equal volumes of plasma and PBS samples were mixed with blank PBS and blank plasma, respectively, followed by the addition of acetonitrile containing chlorpropamide (TRC, C424800) as the internal standard. […] All measurements were performed in duplicate with a deviation of less than 15% between replicates. The free fraction (% Free) was calculated as (concentration in buffer chamber/concentration in plasma chamber) × 100, and the bound fraction (% Bound) was obtained by subtracting % Free from 100. In cases where measurements were unstable, deviations greater than 15% were allowed.

plasma protein [2] = experiment: as above; format: in vitro ADME, rat; conditions: 10 μM, 37 °C, 4 h
Experimental: as §4

[3] = Preliminary study, I.V. bolus administration to mice; format: in vivo
[4] = Tissue partition coefficient extrapolated from rat via plasma unbound fractions
Experimental: When calculating KP,T for LJ-4378 in […], Eq. (1) was used:1 KP,T=CT,ss/Cp,ss where CT,ss and Cp,ss represented the tissue and plasma concentrations at 270 min after the initiation of LJ-4378 infusion. In addition, under the free-drug hypothesis, the KP,T can be expressed as the ratio of the unbound fractions in plasma ( fup ) and tissue ( fu,T ) [Eq. (2)]. Given similar interspecies values of tissue unbound fraction (Poulin and Theil [2000]), the rat KP,T values were extrapolated to those in mice and humans using the following Eq. (3):2 KP,T=fup/fu,T 3 KP,T,extrapolated=KP,T,rat×fup/fup,rat

CCCCC#Cc1nc(N)c2ncn([C@@H]3SC[C@@H](O)[C@H]3O)c2n1 [LJ-4378]
% of control activity CYP1A2 (CYP1A2): 82.2%
% of control activity CYP2C9 (CYP2C9): 95.8%
% of control activity CYP2C19 (CYP2C19): 85.3%
% of control activity CYP2D6 (CYP2D6): 89.3%
% of control activity CYP3A4 (CYP3A4): 96.9%
Plasma free fraction (% Free), Human (plasma protein [1]): 30.1%
Plasma free fraction (% Free), Rat (plasma protein [2]): 29.7%
terminal phase half-life [3]: approximately 0.29 h
Steady state tissue partition coefficient (KP,T), Adipose ([4]; Humans (extrapolated)): 0.200
Steady state tissue partition coefficient (KP,T), Brain ([4]; Humans (extrapolated)): 0.0443
Steady state tissue partition coefficient (KP,T), Liver ([4]; Humans (extrapolated)): 1.04
Steady state tissue partition coefficient (KP,T), Lungs ([4]; Humans (extrapolated)): 0.540
Steady state tissue partition coefficient (KP,T), Adipose ([4]; Mice (extrapolated)): 0.197
Steady state tissue partition coefficient (KP,T), Brain ([4]; Mice (extrapolated)): 0.0437
Steady state tissue partition coefficient (KP,T), Liver ([4]; Mice (extrapolated)): 1.03
Steady state tissue partition coefficient (KP,T), Lungs ([4]; Mice (extrapolated)): 0.533
